This note sets out measurements from PubChem BioAssay AID1259408 (Genetic Toxicology Data Bank (GENE-TOX), 2018).

Each structure is given as a SMILES string. Calls of active or inactive are those of the source. No rule for the calls is given here.

The test system of the data set is GENE-TOX genotoxicity assays, various organisms and cells. In words: GENE-TOX mutagenicity studies. To be noted: for call: Assay Type: In vivo carcinogenicity studies.
Setting [1] is: Species/Cell Type: Drosophila melanogaster, Assay Type: Sex-linked recessive lethal gene mutation, Assay Code: SRL+, Evaluation Type: Evaluation A (Pre-1980).
[2] abbreviates: Species/Cell Type: Human lymphocytes, Assay Type: Sister-chromatid exchange (SCE) in vitro, Assay Code: SCL+, Evaluation Type: Evaluation B (Post-1980).
The mark [3] stands for this setting: Species/Cell Type: Human, Assay Type: Sister-chromatid exchange (SCE) in vitro, Assay Code: SC1+, Evaluation Type: Evaluation B (Post-1980).
[4] abbreviates: Species/Cell Type: Saccharomyces cerevisiae, Assay Type: Forward gene mutation, Assay Code: YEF+, Evaluation Type: Evaluation A (Pre-1980).
The mark [5] stands for this setting: Species/Cell Type: Saccharomyces cerevisiae, Assay Type: Mitotic recombination or gene conversion, Assay Code: YEC+, Evaluation Type: Evaluation A (Pre-1980).
The mark [6] stands for this setting: Species/Cell Type: Mammalian polychromatic erythrocytes, Assay Type: Micronucleus test, chromosome aberrations, Assay Code: MNTT, Evaluation Type: Evaluation B (Post-1980).

As for `C1CN1c1nc(N2CC2)nc(N2CC2)n1`, the mutagenic call reads like this: (Species/Cell Type: Allium cepa, Assay Type: Chromosome aberrations, Assay Code: ALC+, Evaluation Type: Evaluation A (Pre-1980)) “active; positive”; (Species/Cell Type: Arabidopsis species, Assay Type: Gene mutation, Assay Code: ARM-, Evaluation Type: Evaluation A (Pre-1980)) “inactive; negative”; under setting [1], “active; positive”; (Species/Cell Type: Drosophila melanogaster, Sex: Male, Assay Type: Heritable translocation test, chromosome aberrations, Assay Code: DHT+, Evaluation Type: Evaluation A (Pre-1980)) “active; positive”; (Species/Cell Type: F1 mouse, Sex: Male, Assay Type: Sperm morphology, Assay Code: SPF+, Evaluation Type: Evaluation A (Pre-1980)) “active; positive”; under setting [2], “active; positive”. Moreover, the mutagenic call is, setting by setting: under setting [3], “active; positive”; (Species/Cell Type: Mammalian germ cells, Sex: Male, Assay Type: Chromosome aberrations in vivo, Assay Code: CY9+, Evaluation Type: Evaluation A (Pre-1980)) “active; positive”; (Species/Cell Type: Mammalian oocytes or early embryo, Assay Type: Chromosome aberrations in vivo, Assay Code: CYO+, Evaluation Type: Evaluation A (Pre-1980)) “active; positive”; (Species/Cell Type: Mammalian polychromatic erythrocytes, Assay Type: Micronucleus test, chromosome aberrations, Assay Code: MNT+, Evaluation Type: Evaluation A (Pre-1980)) “active; positive”; (Species/Cell Type: Mouse germ cells, Sex: Male, Assay Type: Unscheduled DNA synthesis (UDS) in vivo, DNA effects, Assay Code: UDT+, Evaluation Type: Evaluation A (Pre-1980)) “active; positive”; (Species/Cell Type: Mouse, Sex: Female, Assay Type: Spot test, gene mutation, Assay Code: MSTT, Evaluation Type: Evaluation A (Pre-1980)) “no conclusion”. Besides, the mutagenic call is, setting by setting: (Species/Cell Type: Mouse, Sex: Male, Assay Type: Heritable translocation test, chromosome aberrations, Assay Code: HTT+, Evaluation Type: Evaluation A (Pre-1980)) “active; positive”; (Species/Cell Type: Mouse, Sex: Male, Assay Type: Specific locus test, gene mutation, Assay Code: SLT+, Evaluation Type: Evaluation A (Pre-1980)) “active; positive”; (Species/Cell Type: Mouse, Sex: Male, Assay Type: Sperm morphology, Assay Code: SPI+, Evaluation Type: Evaluation A (Pre-1980)) “active; positive”; (Species/Cell Type: Nonhuman bone marrow, Assay Type: Chromosome aberrations, in vivo, Assay Code: CY#+, Evaluation Type: Evaluation A (Pre-1980)) “active; positive”; (Species/Cell Type: Nonhuman, Assay Type: Sister-chromatid exchange (SCE) in vitro, Assay Code: SC2+D, Dose Response: With dose response, Evaluation Type: Evaluation B (Post-1980)) “active; positive”; (Species/Cell Type: Nonhuman, Assay Type: Sister-chromatid exchange (SCE) in vivo, Assay Code: SC3+D, Dose Response: With dose response, Evaluation Type: Evaluation B (Post-1980)) “active; positive”. For the same compound, the mutagenic call by setting is: (Species/Cell Type: Rabbit, Sex: Male, Assay Type: Sperm morphology, Assay Code: SPRT, Evaluation Type: Evaluation A (Pre-1980)) “no conclusion”; (Species/Cell Type: Rodents, Sex: Male, Assay Type: Dominant lethal test, Assay Code: DLT+D, Dose Response: With dose response, Evaluation Type: Evaluation A (Pre-1980)) “active; positive”; (Species/Cell Type: Saccharomyces cerevisiae, Assay Type: Forward and reverse gene mutation, mitotic recombination and gene conversion, host-mediated assay, Assay Code: HME+, Evaluation Type: Evaluation A (Pre-1980)) “active; positive”; under setting [4], “active; positive”; under setting [5], “active; positive”; (Species/Cell Type: Saccharomyces cerevisiae, Assay Type: Mitotic recombination or gene conversion, Assay Code: YEH+, Evaluation Type: Evaluation A (Pre-1980)) “active; positive”. Further, the mutagenic call reads like this: (Species/Cell Type: Saccharomyces cerevisiae, Assay Type: Reverse gene mutation, Assay Code: YER+, Evaluation Type: Evaluation A (Pre-1980)) “active; positive”; (Species/Cell Type: Vicia faba, Assay Type: Chromosome aberrations, Assay Code: VIC+, Evaluation Type: Evaluation A (Pre-1980)) “active; positive”. For the same compound, under “Species/Cell Type: Nonhuman, Assay Code: CCG+L, Evaluation Type: Evaluation A (Pre-1980)”, the call was “active; positive”.
For the compound `CCCCCCCCCCCCCCCCCC(=O)O`, the mutagenic call (Species/Cell Type: Escherichia coli polA (W3119 vs P3478), Assay Type: Rec-assay, DNA effects (bacterial DNA repair), Assay Code: RE1-, Evaluation Type: Evaluation A (Pre-1980)) was “inactive; negative”.
Consider `CCNP(=S)(OC)O/C(C)=C/C(=O)OC(C)C` (stereo not given) (tested in a mixture with another compound), for which the mutagenic call under setting [6] is listed as “no conclusion”.
Turning to `C[As+](C)(C)CC(=O)[O-]`, under “Species/Cell Type: Nonhuman, Assay Type: Sister-chromatid exchange (SCE) in vitro, Assay Code: SC2T, Evaluation Type: Evaluation B (Post-1980)”, the mutagenic call was “no conclusion”.
As for `[N-]=[N+]=[N-]`, the mutagenic call reads like this: (Species/Cell Type: Arabidopsis species, Assay Type: Gene mutation, Assay Code: ARMT, Evaluation Type: Evaluation A (Pre-1980)) “no conclusion”; under setting [1], “active; positive”; (Species/Cell Type: Escherichia coli WP2, Assay Type: Tryptophan reverse gene mutation, Assay Code: WP2T, Evaluation Type: Evaluation A (Pre-1980)) “no conclusion”; (Species/Cell Type: Escherichia coli WP2 UVRA, Assay Type: Tryptophan reverse gene mutation, Assay Code: WPU-, Evaluation Type: Evaluation A (Pre-1980)) “inactive; negative”; (Species/Cell Type: Glycine max (soybean), Assay Type: Gene mutation, Assay Code: GLM+, Evaluation Type: Evaluation A (Pre-1980)) “active; positive”; (Species/Cell Type: Hordeum vulgare (barley), Assay Type: Gene mutation, Assay Code: HOM+, Evaluation Type: Evaluation A (Pre-1980)) “active; positive”. The mutagenic call (Species/Cell Type: Human diploid fibroblasts, Assay Type: Unscheduled DNA synthesis (UDS) in vitro, DNA effects, Assay Code: UDH-, Evaluation Type: Evaluation A (Pre-1980)) is “inactive; negative”; the mutagenic call (Species/Cell Type: Human lymphocytes or leukocytes, Assay Type: Chromosome aberrations in vitro, Assay Code: CY7-, Evaluation Type: Evaluation A (Pre-1980)) was “inactive; negative”; the mutagenic call under setting [2] is “active; positive”; the mutagenic call under setting [3] is “active; positive”; the mutagenic call (Species/Cell Type: Mouse lymphoma (L5178Y) cells, Assay Type: Forward gene mutation at the thymidine kinase (TK) locus, chromosome aberrations, Assay Code: L51+, Evaluation Type: Evaluation A (Pre-1980)) is “active; positive”; the mutagenic call (Species/Cell Type: Mouse, Sex: Male, Assay Type: Sperm morphology, Assay Code: SPI-, Evaluation Type: Evaluation A (Pre-1980)) was “inactive; negative”. For the same compound, the mutagenic call under setting [4] was “active; positive”; the mutagenic call under setting [5] is “active; positive”; the mutagenic call (Species/Cell Type: Saccharomyces cerevisiae, Assay Type: Reverse gene mutation, Assay Code: YER+*, Activation: With metabolic activation, Evaluation Type: Evaluation A (Pre-1980)) is “active; positive”; the mutagenic call (Species/Cell Type: Salmonella typhimurium (one or more of the five standard strains: TA98, TA100, TA1535, TA1537, and TA1538), Assay Type: Histidine reverse gene mutation, Ames assay, Assay Code: SAL+, Evaluation Type: Evaluation A (Pre-1980)) was “active; positive”; the mutagenic call (Species/Cell Type: Tradescantia species, Assay Type: Chromosome aberrations, Assay Code: TRC+D, Dose Response: With dose response, Evaluation Type: Evaluation A (Pre-1980)) was “active; positive”; the mutagenic call (Species/Cell Type: Tradescantia species, Assay Type: Gene mutation, Assay Code: TRM+D, Dose Response: With dose response, Evaluation Type: Evaluation A (Pre-1980)) was “active; positive”. Also, the mutagenic call (Species/Cell Type: Zea mays (corn), Assay Type: Gene mutation, Assay Code: ZEM+D, Dose Response: With dose response, Evaluation Type: Evaluation A (Pre-1980)) was “active; positive”. For the same compound, the call (Species/Cell Type: Nonhuman, Assay Code: CCGT, Evaluation Type: Evaluation A (Pre-1980)) is recorded as “no conclusion”.
Regarding `[Cl][Rh]([Cl])[Cl]`, where the note is “Species/Cell Type: Bacillus subtilis (H17 vs M45), Assay Type: Rec-assay, spot test, DNA effects (bacterial DNA repair), Assay Code: REW+, Evaluation Type: Evaluation A (Pre-1980)”, the mutagenic call was “active; positive”.
Consider `COc1cc(O)c2c(=O)c(O)c(-c3ccc(O)c(O)c3)oc2c1`, for which, under setting [6], the mutagenic call was “no conclusion”.
For `O=[N+]([O-])c1cc([N+](=O)[O-])c2ccc3cccc4ccc1c2c43`, the mutagenic call (Species/Cell Type: Chinese hamster ovary (CHO) cells, Assay Type: Forward gene mutation at the HPRT locus, Assay Code: CHO+*, Activation: With metabolic activation, Evaluation Type: Evaluation B (Post-1980)) is “active; positive”.
Turning to `C#C[C@]1(OC(C)=O)CC[C@H]2[C@@H]3CCC4=CC(=O)CC[C@@H]4[C@H]3CC[C@@]21C`, the mutagenic call (Species/Cell Type: Rodents, Sex: Male, Assay Type: Dominant lethal test, Assay Code: DLTT, Evaluation Type: Evaluation A (Pre-1980)) is listed as “no conclusion”.
Turning to `Oc1c(I)cc(Cl)c2cccnc12`, the mutagenic call (Species/Cell Type: Neurospora crassa, Assay Type: Aneuploidy, chromosome aberrations, Assay Code: NEN-, Evaluation Type: Evaluation A (Pre-1980)) is “inactive; negative”.
